According to US7691889B2, “Antimycobacterial compounds” (Lupin Limited, priority 2002, dated 2010):
≈ marks a conversion by molar mass, not a printed value. Read-outs that look alike come from different tables or passages of the source.

What was measured:
M. tuberculosis 27294 = assay: In vitro agar dilution assay (MIC), reference strain; type: cell-based, Mycobacterium tuberculosis; conditions: for MIC against M. tuberculosis 27294: Middlebrook 7H10; for MIC: Mycobacterium tuberculosis, 27294, Middlebrook 7H10, read-out: MIC against M. tuberculosis 27294
[1] = system: M. tuberculosis clinical isolates, sensitive; assay: microbe, parasite or virus in culture; type: cell-based, Mycobacterium tuberculosis; conditions: for MIC against Clinical isolates Sensitive: Table I, agar dilution; for MIC: Mycobacterium tuberculosis
M. fortuitum = assay: In vitro agar dilution assay (MIC), M. fortuitum; type: cell-based; conditions: Mycolicibacterium fortuitum; Table II
M. kansai = assay: In vitro agar dilution assay (MIC), M. kansai; type: cell-based; conditions: Table II
[2] = system: M. tuberculosis ATCC 27294 infection; assay: Murine model of pulmonary tuberculosis; conditions: for Mean Log10 No. of CFU Lung / Mean Log10 No. of CFU Spleen: 5 day/week for 4 weeks, mice; for Mean Log10 No. of reduction Lung / Mean Log10 No. of reduction Spleen: difference from early controls
[3] = read-out: MIC against Clinical isolates Sensitive

## COc1ccc(C(=O)CCC(=O)NC[C@H]2CN(c3ccc(N4CCCCC4)c(F)c3)C(=O)O2)cc1 [Compound 35, (S)-N-[[3-(3-fluoro-4-piperidylphenyl)-2-oxo-5-oxazolidinyl]methyl]-4-(4-methoxyphenyl)-4-oxobutanamide]
M. tuberculosis 27294
  MIC against M. tuberculosis 27294: 4 µg/mL (≈ 8.27 µM)
[1]
  MIC against Clinical isolates Sensitive: 2 to 4 µg/mL

## O=C(CCC(=O)c1ccc(Cl)cc1)NC[C@H]1CN(c2ccc(N3CCCCC3)c(F)c2)C(=O)O1 [Compound 36, (S)-N-[[3-(3-fluoro-4-piperidylphenyl)-2-oxo-5-oxazolidinyl]methyl]-4-(4-chlorophenyl)-4-oxobutanamide]
M. tuberculosis 27294
  MIC against M. tuberculosis 27294: 4 µg/mL (≈ 8.2 µM)
[1]
  MIC against Clinical isolates Sensitive: 4 to 8 µg/mL

## O=C(CCC(=O)c1ccc(Cl)cc1)NC[C@H]1CN(c2ccc(-n3nnc4ccccc43)c(F)c2)C(=O)O1 [Compound 39, (S)-N-[[3-(3-fluoro-4-benzotriazolylphenyl)-2-oxo-5-oxazolidinyl]methyl]-4-(4-chlorophenyl)-4-oxobutanamide]
M. tuberculosis 27294
  MIC against M. tuberculosis 27294: 2 µg/mL (≈ 3.83 µM)
[1]
  MIC against Clinical isolates Sensitive: 2 to 4 µg/mL

## Cc1ccc(C(=O)CCC(=O)NC[C@H]2CN(c3ccc(-c4nc[nH]n4)c(F)c3)C(=O)O2)c(C)c1 [Compound 43, (S)-N-[[3-(3-fluoro-4-(1,2,4-triazolyl)phenyl)-2-oxo-5-oxazolidinyl]methyl]-4-(2,4-dimethylphenyl)-4-oxobutanamide]
M. tuberculosis 27294
  MIC: 1 µg/mL (≈ 2.15 µM)
[1]; [3]
  MIC: 0.5 to 1 µg/mL (≈ 1.07 to 2.15 µM)

## CSc1ccc(C(=O)CCC(=O)NC[C@H]2CN(c3ccc(-n4cncn4)c(F)c3)C(=O)O2)cc1 [Compound 44, (S)-N-[[3-(3-fluoro-4-(1,2,4-triazolyl)phenyl)-2-oxo-5-oxazolidinyl]methyl]-4-oxo-4-(4-thiomethylphenyl)butanamide]
M. tuberculosis 27294
  MIC against M. tuberculosis 27294: 1 µg/mL (≈ 2.07 µM)
[1]
  MIC against Clinical isolates Sensitive: 0.5 to 2 µg/mL

## CCCc1ccc(C(=O)CCC(=O)NC[C@H]2CN(c3ccc(-c4nc[nH]n4)c(F)c3)C(=O)O2)c(C)c1 [Compound 46, (S)-N-[[3-(3-fluoro-4-(1,2,4-triazolyl)phenyl)-2-oxo-5-oxazolidinyl]methyl]-4-(2′-methyl-4-propylphenyl)-4-oxobutanamide]
M. tuberculosis 27294
  MIC: 2 µg/mL (≈ 4.05 µM)
[1]; [3]
  MIC: 2 to 4 µg/mL (≈ 4.05 to 8.1 µM)

## O=C(CCC(=O)c1cccs1)NC[C@H]1CN(c2ccc(-c3nc[nH]n3)c(F)c2)C(=O)O1 [Compound 47, (S)-N-[[3-(3-fluoro-4-(1,2,4-triazolyl)phenyl)-2-oxo-5-oxazolidinyl]methyl]-4-oxo-4-(2-thienyl)butanamide]
M. tuberculosis 27294
  MIC: 1 µg/mL (≈ 2.25 µM)
[1]; [3]
  MIC: 1 to 2 µg/mL (≈ 2.25 to 4.51 µM)

## O=C(CCC(=O)c1ccc2ccccc2c1)NC[C@H]1CN(c2ccc(-c3nc[nH]n3)c(F)c2)C(=O)O1 [Compound 48, (S)-N-[[3-(3-fluoro-4-(1,2,4-triazolyl)phenyl)-2-oxo-5-oxazolidinyl]methyl]-4-(2-naphthyl)-4-oxobutanamide]
M. tuberculosis 27294
  MIC: 2 µg/mL (≈ 4.1 µM)
[1]; [3]
  MIC: 2 to 4 µg/mL (≈ 4.1 to 8.21 µM)

## O=C(CCC(=O)c1ccc(Cl)cc1)NC[C@H]1CN(c2ccc(-c3nc[nH]n3)c(F)c2)C(=O)O1 [Compound 49, (S)-N-[[3-(3-fluoro-4-(1,2,4-triazolyl)phenyl)-2-oxo-5-oxazolidinyl]methyl]-4-(4-chlorophenyl)-4-oxobutanamide]
M. tuberculosis 27294
  MIC: 4 µg/mL (≈ 8.48 µM)
[1]; [3]
  MIC: 4 to 16 µg/mL (≈ 8.48 to 33.9 µM)

## CC(=O)Nc1ccc(C(=O)CCC(=O)NC[C@H]2CN(c3ccc(-c4nc[nH]n4)c(F)c3)C(=O)O2)cc1 [Compound 50, (S)-N-[[3-(3-fluoro-4-(1,2,4-triazolyl)phenyl)-2-oxo-5-oxazolidinyl]methyl]-4-(4-acetamidophenyl)-4-oxobutanamide]
M. tuberculosis 27294
  MIC: 2 µg/mL (≈ 4.04 µM)
[1]; [3]
  MIC: 2 to 4 µg/mL (≈ 4.04 to 8.09 µM)

## O=C(CCC(=O)c1cccs1)NC[C@H]1CN(c2ccc(N3CCCCC3)c(F)c2)C(=O)O1 [Compound 52, (S)-N-[[3-(3-fluoro-4-piperidylphenyl)-2-oxo-5-oxazolidinyl]methyl]-4-oxo-4-(2-thienyl)butanamide]
M. tuberculosis 27294
  MIC against M. tuberculosis 27294: 2 µg/mL (≈ 4.35 µM)
[1]
  MIC against Clinical isolates Sensitive: 2 µg/mL (≈ 4.35 µM)

## CC(=O)Nc1ccc(C(=O)CCC(=O)NC[C@H]2CN(c3ccc(N4CCCCC4)c(F)c3)C(=O)O2)cc1 [Compound 54, (S)-N-[[3-(3-fluoro-4-piperidylphenyl)-2-oxo-5-oxazolidinyl]methyl]-4-(4-acetamidophenyl)-4-oxobutanamide]
M. tuberculosis 27294
  MIC against M. tuberculosis 27294: 8 µg/mL (≈ 15.7 µM)
[1]
  MIC against Clinical isolates Sensitive: 8 to 16 µg/mL

## O=C(C=CC(=O)c1ccccc1)NC[C@H]1CN(c2ccc(N3CCCCC3)c(F)c2)C(=O)O1 [Compound 55, (S)-N-[[3-(3-fluoro-4-piperidylphenyl)-2-oxo-5-oxazolidinyl]methyl]-4-oxo-4-phenylbut-2-enamide]
M. tuberculosis 27294
  MIC against M. tuberculosis 27294: >16 µg/mL
[1]
  MIC against Clinical isolates Sensitive: >16 µg/mL

## CSc1ccc(C(=O)CCC(=O)NC[C@H]2CN(c3ccc(N4CCCC4)c(F)c3)C(=O)O2)cc1 [Compound 56, (S)-N-[[3-(3-fluoro-4-pyrrolidinylphenyl)-2-oxo-5-oxazolidinyl]methyl]-4-oxo-4-(4-thiomethylphenyl)butanamide]
M. tuberculosis 27294
  MIC against M. tuberculosis 27294: >16 µg/mL
[1]
  MIC against Clinical isolates Sensitive: >16 µg/mL

## NNC(=O)c1ccncc1 [Isoniazid, reference compound]
M. tuberculosis 27294
  MIC: 0.25 µg/mL (≈ 1.82 µM)
[1]; read-out: MIC M. tuberculosis Sensitive
  MIC: 0.25 µg/mL (≈ 1.82 µM)
[1]; [3]
  MIC: 0.12 to 0.25 µg/mL (≈ 0.875 to 1.82 µM)
M. fortuitum
  MIC: > 16 µg/mL
M. kansai
  MIC: > 16 µg/mL
[2]; 12.5 mg/kg by gavage
  Mean Log10 No. of CFU Lung: 2.95
  Mean Log10 No. of CFU Spleen: 2.94
[2]; 12.5 mg/kg
  Mean Log10 No. of reduction Lung: 1.57
  Mean Log10 No. of reduction Spleen: 1.68
[2]; 25 mg/kg by gavage
  Mean Log10 No. of CFU Lung: 2.11
  Mean Log10 No. of CFU Spleen: 2.11
[2]; 25 mg/kg
  Mean Log10 No. of reduction Lung: 2.41
  Mean Log10 No. of reduction Spleen: 2.51
[2]; 50 mg/kg by gavage
  Mean Log10 No. of CFU Lung: 2.03
  Mean Log10 No. of CFU Spleen: 1.92
[2]; 50 mg/kg
  Mean Log10 No. of reduction Lung: 2.49
  Mean Log10 No. of reduction Spleen: 2.70

## CC(=O)NC[C@H]1CN(c2ccc(N3CCOCC3)c(F)c2)C(=O)O1 [Linezolid, (S)-N-[[3-[3-fluoro-4-(4-morpholinyl)phenyl]-2-oxo-5-oxazolidin-yl]methyl]-acetamide, reference compound]
M. tuberculosis 27294
  MIC: 0.5 µg/mL (≈ 1.48 µM)
[1]; [3]
  MIC: 0.25 to 0.5 µg/mL (≈ 0.741 to 1.48 µM)

## (S)-N-[[3-(3-fluoro-4-(1,2,4-triazolyl)phenyl)-2-oxo-5-oxazolidinyl]methyl]-4-(2′,2′-dimethyl-4-ethylphenyl)-4-oxobutanamide [Compound 45]
M. tuberculosis 27294
  MIC against M. tuberculosis 27294: 2.0 µg/mL
[1]
  MIC against Clinical isolates Sensitive: 2 to 4 µg/mL

## (S)-N-[[3-(3-fluoro-4-(1,2,4-triazolyl)phenyl)-2-oxo-5-oxazolidinyl]methyl]-4-oxo-4-phenylbutanamide [Compound 40]
M. tuberculosis 27294
  MIC against M. tuberculosis 27294: 1 µg/mL
[1]
  MIC against Clinical isolates Sensitive: 1 to 2 µg/mL

## (S)-N-[[3-(3-fluoro-4-morpholinylphenyl)-2-oxo-5-oxazolidinyl]methyl]-4-[4-(2′,2′-dimethyl-4-ethylphenyl)-4-oxobutanamide [Compound 20]
M. tuberculosis 27294
  MIC against M. tuberculosis 27294: 1 µg/mL
[1]
  MIC against Clinical isolates Sensitive: 1 to 2 µg/mL
